Measurements reported in patent US20250179078A1, “INHIBITORS OF NLRP3” (PTC THERAPEUTICS, INC., priority 2022, published 2025).
pIC50: −log10 of the molar value.

Target: T1, NLRP3 (Homo sapiens, UniProt Q96P20)
T1 construct: host or cells: THP-1 cells differentiated with PMA
Test: IL-1β Secretion Assay (NLRP3-dependent IL1β secretion in THP1 cells)
Format: cell-based
Conditions: PMA-differentiated THP-1 cells; compounds incubated 20 h; 2.5 μM Nigericin 3 h; HTRF IL-1β readout; read-out: IC50 IL-1β Inhibition
Summary of the method: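 IL-1β in conditioned media, measured by HTRF after 3 h 2.5 μM nigericin stimulation, gave % inhibition fitted logistically for IC50. Before that, PMA-differentiated (100 ng/mL, 24 h) THP-1 cells were preincubated 20 h with 7 compound concentrations (3-fold serial, DMSO 1:200).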

T1 sequence (Q96P20 whole entry): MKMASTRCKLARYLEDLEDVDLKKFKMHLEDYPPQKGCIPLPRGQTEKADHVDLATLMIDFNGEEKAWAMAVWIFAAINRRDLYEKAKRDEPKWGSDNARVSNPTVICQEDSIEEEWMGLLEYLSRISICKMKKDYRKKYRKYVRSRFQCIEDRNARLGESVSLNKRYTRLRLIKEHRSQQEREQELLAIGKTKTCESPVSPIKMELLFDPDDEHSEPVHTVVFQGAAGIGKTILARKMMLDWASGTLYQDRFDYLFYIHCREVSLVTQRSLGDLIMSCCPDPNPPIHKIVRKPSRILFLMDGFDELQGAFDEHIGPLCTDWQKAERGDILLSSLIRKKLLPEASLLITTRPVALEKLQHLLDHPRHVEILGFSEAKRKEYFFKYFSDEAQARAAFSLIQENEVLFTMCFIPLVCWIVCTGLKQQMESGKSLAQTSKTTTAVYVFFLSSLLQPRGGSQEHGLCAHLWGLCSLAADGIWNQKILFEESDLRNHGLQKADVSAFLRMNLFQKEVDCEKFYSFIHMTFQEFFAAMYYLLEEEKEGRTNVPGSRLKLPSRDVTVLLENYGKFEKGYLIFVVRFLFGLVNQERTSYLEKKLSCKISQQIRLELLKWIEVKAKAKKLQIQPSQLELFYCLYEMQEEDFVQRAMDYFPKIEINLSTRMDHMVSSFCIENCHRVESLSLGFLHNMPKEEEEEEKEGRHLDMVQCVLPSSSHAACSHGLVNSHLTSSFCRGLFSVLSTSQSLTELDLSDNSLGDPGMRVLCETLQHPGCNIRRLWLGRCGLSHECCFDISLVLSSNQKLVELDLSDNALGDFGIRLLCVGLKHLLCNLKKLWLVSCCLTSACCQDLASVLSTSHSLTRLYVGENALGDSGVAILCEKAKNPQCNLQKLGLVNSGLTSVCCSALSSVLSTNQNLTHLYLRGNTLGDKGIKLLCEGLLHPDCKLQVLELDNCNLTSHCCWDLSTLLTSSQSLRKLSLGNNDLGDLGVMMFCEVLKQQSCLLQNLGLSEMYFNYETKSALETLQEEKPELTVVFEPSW

SMILES	pIC50
COc1ccc(-c2nnc(N[C@@H]3CCOC[C@H]3O)n3cc(C)cc23)c(OC(F)(F)F)c1 [Compound 165, (3S,4R)-4-({1-[4-methoxy-2-(trifluoromethoxy)phenyl]-7-methylpyrrolo[1,2-d][1,2,4]triazin-4-yl}amino)oxan-3-ol]	8.00 to 9.00
CCN1CCC[C@@H](Nc2nnc(-c3ccc(OC)cc3OC(F)F)c3cccn23)C1 [Compound 166, 1-[2-(difluoromethoxy)-4-methoxyphenyl]-N-[(3R)-1-ethylpiperidin-3-yl]pyrrolo[1,2-d][1,2,4]triazin-4-amine]	> 9.00
COc1ccc(-c2nnc(N[C@@H]3CCOC[C@H]3O)n3cccc23)c(OC(F)F)c1 [Compound 167, (3S,4R)-4-({1-[2-(difluoromethoxy)-4-methoxyphenyl]pyrrolo[1,2-d][1,2,4]triazin-4-yl}amino)oxan-3-ol]	7.00 to 8.00
O[C@@H]1CCCC[C@H]1Nc1nnc(-c2ccc(OC(F)F)cc2OC(F)(F)F)c2cccn12 [Compound 168, (1R,2R)-2-({1-[4-(difluoromethoxy)-2-(trifluoromethoxy)phenyl]pyrrolo[1,2-d][1,2,4]triazin-4-yl}amino)cyclohexan-1-ol]	8.00 to 9.00
CCN1CCC[C@@H](Nc2nnc(-c3ccc(C(F)(F)F)cc3OCF)c3cccn23)C1 [Compound 169, N-[(3R)-1-ethylpiperidin-3-yl]-1-[2-(fluoromethoxy)-4-(trifluoromethyl)phenyl]pyrrolo[1,2-d][1,2,4]triazin-4-amine]	> 9.00
CN1CC[C@@H](O)[C@@H](Nc2nnc(-c3ccc(OC(F)F)cc3OC(F)(F)F)c3cccn23)C1 [Compound 170, (3S,4R)-3-({1-[4-(difluoromethoxy)-2-(trifluoromethoxy)phenyl]pyrrolo[1,2-d][1,2,4]triazin-4-yl}amino)-1-methylpiperidin-4-ol]	> 9.00
CCN1CC[C@@H](O)[C@@H](Nc2nnc(-c3ccc(OC(F)F)cc3OC(F)(F)F)c3cccn23)C1 [Compound 171, (3S,4R)-3-({1-[4-(difluoromethoxy)-2-(trifluoromethoxy)phenyl]pyrrolo[1,2-d][1,2,4]triazin-4-yl}amino)-1-ethylpiperidin-4-ol]	> 9.00
CC(Nc1nnc(-c2ccc(OC(F)F)cc2OC(F)(F)F)c2cccn12)c1cccc(O)c1 (centres unmarked) [Compound 172, 3-[1-({1-[4-(difluoromethoxy)-2-(trifluoromethoxy)phenyl]pyrrolo[1,2-d][1,2,4]triazin-4-yl}amino)ethyl]phenol]	> 9.00
OCCN1CCC[C@@H](Nc2nnc(-c3ccc(C(F)(F)F)cc3OCF)c3cccn23)C1 [Compound 173, 2-[(3R)-3-({1-[2-(fluoromethoxy)-4-(trifluoromethyl)phenyl]pyrrolo[1,2-d][1,2,4]triazin-4-yl}amino)piperidin-1-yl]ethan-1-ol]	> 9.00
COc1ccc(-c2nnc(NC3CCNC3=O)n3cccc23)c(OC(F)F)c1 (centres unmarked) [Compound 174, 3-({1-[2-(difluoromethoxy)-4-methoxyphenyl]pyrrolo[1,2-d][1,2,4]triazin-4-yl}amino)pyrrolidin-2-one]	7.00 to 8.00
CCN1CC[C@@H](O)[C@@H](Nc2nnc(-c3ccc(OC)cc3OC(F)F)c3cccn23)C1 [Compound 175, (3S,4R)-3-({1-[2-(difluoromethoxy)-4-methoxyphenyl]pyrrolo[1,2-d][1,2,4]triazin-4-yl}amino)-1-ethylpiperidin-4-ol]	> 9.00
COc1ccc(-c2nnc(N[C@H]3CCC[C@@H](CO)C3)n3cccc23)c(OC(F)F)c1 [Compound 176, [(1R,3S)-3-({1-[2-(difluoromethoxy)-4-methoxyphenyl]pyrrolo[1,2-d][1,2,4]triazin-4-yl}amino)cyclohexyl]methanol]	7.00 to 8.00
COc1ccc(-c2nnc(N[C@@H]3CCCC[C@H]3O)n3cccc23)c(OC(F)F)c1 [Compound 177, (1R,2R)-2-({1-[2-(difluoromethoxy)-4-methoxyphenyl]pyrrolo[1,2-d][1,2,4]triazin-4-yl}amino)cyclohexan-1-ol]	7.00 to 8.00
CCN1CCC[C@@H](Nc2nnc(-c3ccc(C(F)(F)F)cc3OC3CC3)c3cccn23)C1 [Compound 178, 1-[2-(cyclopropyloxy)-4-(trifluoromethyl)phenyl]-N-[(3R)-1-ethylpiperidin-3-yl]pyrrolo[1,2-d][1,2,4]triazin-4-amine]	8.00 to 9.00
OCCN1CCC[C@@H](Nc2nnc(-c3ccc(C(F)(F)F)cc3OC3CC3)c3cccn23)C1 [Compound 179, 2-[(3R)-3-({1-[2-(cyclopropyloxy)-4-(trifluoromethyl)phenyl]pyrrolo[1,2-d][1,2,4]triazin-4-yl}amino)piperidin-1-yl]ethan-1-ol]	7.00 to 8.00
CCN1CCC[C@@H](Nc2nnc(-c3ccc(OC)cc3OC3CC3)c3cccn23)C1 [Compound 182, 1-[2-(cyclopropyloxy)-4-methoxyphenyl]-N-[(3R)-1-ethylpiperidin-3-yl]pyrrolo[1,2-d][1,2,4]triazin-4-amine]	8.00 to 9.00

SMILES	pIC50
Cc1ccc(-c2nnc(N[C@H]3C[C@@H](CO)C3)n3cncc23)c(OC(F)F)c1 [Compound 183, [(1s,3s)-3-({1-[2-(difluoromethoxy)-4-methylphenyl]imidazo[1,5-d][1,2,4]triazin-4-yl}amino)cyclobutyl]methanol]	7.00 to 8.00
Cc1ccc(-c2nnc(N[C@@H]3CCCN(CCO)C3)n3cncc23)c(OC(F)F)c1 [Compound 184, 2-[(3R)-3-({1-[2-(difluoromethoxy)-4-methylphenyl]imidazo[1,5-d][1,2,4]triazin-4-yl}amino)piperidin-1-yl]ethan-1-ol]	8.00 to 9.00
OCCN1CCC[C@@H](Nc2nnc(-c3ccc(C4CC4)cc3OC(F)F)c3cncn23)C1 [Compound 185, 2-[(3R)-3-({1-[4-cyclopropyl-2-(difluoromethoxy)phenyl]imidazo[1,5-d][1,2,4]triazin-4-yl}amino)piperidin-1-yl]ethan-1-ol]	8.00 to 9.00
OCCN1CCC[C@@H](Nc2nnc(-c3ccc(C(F)(F)F)cc3OC(F)F)c3cncn23)C1 [Compound 186, 2-[(3R)-3-({1-[2-(difluoromethoxy)-4-(trifluoromethyl)phenyl]imidazo[1,5-d][1,2,4]triazin-4-yl}amino)piperidin-1-yl]ethan-1-ol]	> 9.00
C[C@]1(O)C[C@@H](Nc2nnc(-c3ccc(C(F)(F)F)cc3OC(F)F)c3cncn23)C1 [Compound 187, (1s,3s)-3-({1-[2-(difluoromethoxy)-4-(trifluoromethyl)phenyl]imidazo[1,5-d][1,2,4]triazin-4-yl}amino)-1-methylcyclobutan-1-ol]	8.00 to 9.00
FC(F)Oc1cc(C(F)(F)F)ccc1-c1nnc(N[C@@H]2CCCOC2)n2cncc12 [Compound 188, 1-[2-(difluoromethoxy)-4-(trifluoromethyl)phenyl]-N-[(3R)-oxan-3-yl]imidazo[1,5-d][1,2,4]triazin-4-amine]	7.00 to 8.00
FC(F)Oc1cc(Cl)ccc1-c1nnc(N[C@@H]2CCCOC2)n2cncc12 [Compound 189, 1-[4-chloro-2-(difluoromethoxy)phenyl]-N-[(3R)-oxan-3-yl]imidazo[1,5-d][1,2,4]triazin-4-amine]	7.00 to 8.00
CN1CCC[C@@H](Nc2nnc(-c3ccc(Cl)cc3OC(F)F)c3cncn23)C1 [Compound 190, 1-[4-chloro-2-(difluoromethoxy)phenyl]-N-[(3R)-1-methylpiperidin-3-yl]imidazo[1,5-d][1,2,4]triazin-4-amine]	> 9.00
CCN1CCC[C@@H](Nc2nnc(-c3ccc(Cl)cc3OC(F)F)c3cncn23)C1 [Compound 191, 1-[4-chloro-2-(difluoromethoxy)phenyl]-N-[(3R)-1-ethylpiperidin-3-yl]imidazo[1,5-d][1,2,4]triazin-4-amine]	> 9.00
OCCN1CCC[C@@H](Nc2nnc(-c3ccc(Cl)cc3OC(F)F)c3cncn23)C1 [Compound 192, 2-[(3R)-3-({1-[4-chloro-2-(difluoromethoxy)phenyl]imidazo[1,5-d][1,2,4]triazin-4-yl}amino)piperidin-1-yl]ethan-1-ol]	7.00 to 8.00
CN1C[C@H](F)C[C@@H](Nc2nnc(-c3ccc(Cl)cc3OC(F)F)c3cncn23)C1 [Compound 193, 1-[4-chloro-2-(difluoromethoxy)phenyl]-N-[(3R,5R)-5-fluoro-1-methylpiperidin-3-yl]imidazo[1,5-d][1,2,4]triazin-4-amine]	8.00 to 9.00
C[C@]1(O)C[C@@H](Nc2nnc(-c3ccc(Cl)cc3OC(F)F)c3cncn23)C1 [Compound 194, (1s,3s)-3-({1-[4-chloro-2-(difluoromethoxy)phenyl]imidazo[1,5-d][1,2,4]triazin-4-yl}amino)-1-methylcyclobutan-1-ol]	8.00 to 9.00
CN1CCC[C@@H](Nc2nnc(-c3ccc(Br)cc3OC(F)F)c3cncn23)C1 [Compound 195, 1-[4-bromo-2-(difluoromethoxy)phenyl]-N-[(3R)-1-methylpiperidin-3-yl]imidazo[1,5-d][1,2,4]triazin-4-amine]	> 9.00
CCN1C[C@H](F)C[C@@H](Nc2nnc(-c3ccc(Br)cc3OC(F)F)c3cncn23)C1 [Compound 196, 1-[4-bromo-2-(difluoromethoxy)phenyl]-N-[(3R,5R)-1-ethyl-5-fluoropiperidin-3-yl]imidazo[1,5-d][1,2,4]triazin-4-amine]	> 9.00
CN1CCC[C@@H](Nc2nnc(-c3ccc(C(F)(F)F)cc3OC(F)(F)F)c3cncn23)C1 [Compound 197, N-[(3R)-1-methylpiperidin-3-yl]-1-[2-(trifluoromethoxy)-4-(trifluoromethyl)phenyl]imidazo[1,5-d][1,2,4]triazin-4-amine]	> 9.00
OCCN1CCC[C@@H](Nc2nnc(-c3ccc(Br)cc3OC(F)F)c3cncn23)C1 [Compound 198, 2-[(3R)-3-({1-[4-bromo-2-(difluoromethoxy)phenyl]imidazo[1,5-d][1,2,4]triazin-4-yl}amino)piperidin-1-yl]ethan-1-ol]	> 9.00
